# Reference: patent US11033539B2, “Compounds of formulas (VII), (VIII), (IX), (XI), (XII), (XIII), and (XIV) as muscarinic receptor 4(M4) antagonists for treating neurological diseases” (Neurocrine Biosciences, Inc., priority 2015, dated 2021)
# Target: human M4 receptor (Homo sapiens (Human), UniProt P08173)
# Experiment: Radioligand (tritiated N-methylscopolamine) binding assay, M4
# Conditions: Ki against the M4 receptor; membranes from CHO cells expressing human M4; tritiated N-methylscopolamine 1.5 nM; read-out: Ki
# Method in brief: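 Membranes came from recombinant CHO cells expressing human muscarinic subtypes and were incubated with compound and [3H]NMS (1.5 nM) in HEPES/NaCl/MgCl2/EDTA buffer, pH 7.4, at 37° C for 90 min. Twelve-point dose-response (printed 10–[…]). Filter-bound radioactivity was counted and Ki values derived.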
# human M4 receptor, sequence (P08173 whole entry): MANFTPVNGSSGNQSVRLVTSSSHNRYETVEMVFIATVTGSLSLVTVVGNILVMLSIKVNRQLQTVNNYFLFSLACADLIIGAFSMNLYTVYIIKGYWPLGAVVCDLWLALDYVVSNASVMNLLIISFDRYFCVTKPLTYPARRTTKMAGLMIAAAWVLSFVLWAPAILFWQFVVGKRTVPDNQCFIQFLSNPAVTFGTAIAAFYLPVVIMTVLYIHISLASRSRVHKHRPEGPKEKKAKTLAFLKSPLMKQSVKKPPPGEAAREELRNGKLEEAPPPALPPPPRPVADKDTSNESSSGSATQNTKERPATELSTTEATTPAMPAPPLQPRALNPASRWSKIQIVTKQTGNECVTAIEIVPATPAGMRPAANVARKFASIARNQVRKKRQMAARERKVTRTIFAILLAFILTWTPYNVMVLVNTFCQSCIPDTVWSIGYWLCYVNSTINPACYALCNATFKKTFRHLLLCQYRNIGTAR
row,Structure (SMILES),Ki
1,"O=C(NCCC1CCN(Cc2ccccc2)CC1)N1CCC(N2Cc3ccccc3NC2=O)CC1 [8-44, N-[2-(1-benzylpiperidin-4-yl)ethyl]-4-(2-oxo-1,2,3,4-tetrahydroquinazolin-3-yl)piperidine-1-carboxamide]",100 to 1000 nM
2,"CN(CCC1CCN(Cc2ccccc2)CC1)C(=O)C1CCN(c2ccc(OC(F)(F)F)cc2)CC1 [9-34, N-[2-(1-benzylpiperidin-4-yl)ethyl]-N-methyl-1-[4-(trifluoromethoxy)phenyl]piperidine-4-carboxamide]",100 to 1000 nM
3,"O=C(NCCC1CCN(Cc2ccccc2)CC1)NC1CCN(c2ccc(F)cc2)CC1 [8-39, 1-[2-(1-benzylpiperidin-4-yl)ethyl]-3-[1-(4-fluorophenyl)piperidin-4-yl]urea]",100 to 1000 nM
4,"C[C@@H]1CN(c2ncc(F)c(C#N)n2)CCN1C(=O)NCCC1CCN(Cc2ccccc2)CC1 [4-55, (2R)-N-[2-(1-benzylpiperidin-4-yl)ethyl]-4-(4-cyano-5-fluoropyrimidin-2-yl)-2-methylpiperazine-1-carboxamide]",100 to 1000 nM
5,"COc1ccccc1C1CCN(C(=O)NCCC2CCN(Cc3ccccc3)CC2)CC1 [8-6, N-[2-(1-benzylpiperidin-4-yl)ethyl]-4-(2-methoxyphenyl)piperidine-1-carboxamide]",100 to 1000 nM
6,"C[C@@H]1CN(c2cc(F)c(F)c(F)c2)CCN1C(=O)NCCC1CCN(Cc2ccccc2C#N)CC1 [6-29, (2R)-N-(2-{1-[(2-cyanophenyl)methyl]piperidin-4-yl}ethyl)-2-methyl-4-(3,4,5-trifluorophenyl)piperazine-1-carboxamide]",100 to 1000 nM
7,"C[C@@H]1CN(c2cc(F)c(F)c(F)c2)CCN1C(=O)NCCC1CCN(Cc2ccc(C#N)cc2)CC1 [6-2, (2R)-N-(2-{1-[(4-cyanophenyl)methyl]piperidin-4-yl}ethyl)-2-methyl-4-(3,4,5-trifluorophenyl)piperazine-1-carboxamide]",100 to 1000 nM
8,"N#Cc1cc(Cl)ccc1N1CCN(C(=O)NCCC2CCN(Cc3ccccc3)CC2)CC1 [8-7, N-[2-(1-benzylpiperidin-4-yl)ethyl]-4-(4-chloro-2-cyanophenyl)piperazine-1-carboxamide]",100 to 1000 nM
9,"CN(CCNC(=O)c1ccc(-c2ccc(OC(F)(F)F)cc2)cc1)[C@@H]1CCN(Cc2ccccc2)C1 [9-39, N-(2-{[(3R)-1-benzylpyrrolidin-3-yl](methyl)amino}ethyl)-4-[4-(trifluoromethoxy)phenyl]benzamide]",10 to 100 nM
10,"O=C(c1ccc(-c2ccccc2)cc1)N(C1CC1)C1CCN(Cc2ccccc2)CC1 [9-2, N-(1-benzylpiperidin-4-yl)-N-cyclopropyl-4-phenylbenzamide]",100 to 1000 nM
11,"C[C@@H]1CN(c2ncc(F)cn2)C[C@H](C)N1C(=O)NCCC1CCN(Cc2ccccc2)CC1 [5-19, (2S,6R)-N-[2-(1-benzylpiperidin-4-yl)ethyl]-4-(5-fluoropyrimidin-2-yl)-2,6-dimethylpiperazine-1-carboxamide]",10 to 100 nM
12,"N#Cc1ccc(N2CCN(C(=O)NCCC3CCN(Cc4ccccc4)CC3)CC2)cc1 [8-27, N-[2-(1-benzylpiperidin-4-yl)ethyl]-4-(4-cyanophenyl)piperazine-1-carboxamide]",100 to 1000 nM
13,"COc1nc(N2CCN(C(=O)NCCC3CCN(Cc4ccccc4)CC3)[C@H](C)C2)ncc1C#N [5-16, (2R)-N-[2-(1-benzylpiperidin-4-yl)ethyl]-4-(5-cyano-4-methoxypyrimidin-2-yl)-2-methylpiperazine-1-carboxamide]",10 to 100 nM
14,"C[C@@H]1CN(c2cc(F)c(F)c(F)c2)CCN1C(=O)NCCN1CCC(O)(Cc2ccccc2)CC1 [7-7, (2R)-N-[2-(4-benzyl-4-hydroxypiperidin-1-yl)ethyl]-2-methyl-4-(3,4,5-trifluorophenyl)piperazine-1-carboxamide]",100 to 1000 nM
15,"O=C(NCCC1CCN(Cc2ccccc2)CC1)N1CCN(c2ccc(F)cc2)CC1 [8-35, N-[2-(1-benzylpiperidin-4-yl)ethyl]-4-(4-fluorophenyl)piperazine-1-carboxamide]",100 to 1000 nM
16,"O=C(C1CCN(c2ccc(OC(F)(F)F)cc2)CC1)N(CCO)CCC1CCN(Cc2ccccc2)CC1 [9-3, N-[2-(1-benzylpiperidin-4-yl)ethyl]-N-(2-hydroxyethyl)-1-[4-(trifluoromethoxy)phenyl]piperidine-4-carboxamide]",100 to 1000 nM

# The next lines start with the values.
row,Ki,Structure (SMILES)
1,10 to 100 nM,"N#Cc1cc(OC(F)(F)F)cc(N2CCC(O)(C(=O)NCCC3CCN(Cc4ccccc4)CC3)CC2)c1 [10-46, N-[2-(1-benzylpiperidin-4-yl)ethyl]-1-[3-cyano-5-(trifluoromethoxy)phenyl]-4-hydroxypiperidine-4-carboxamide]"
2,10 to 100 nM,C[C@@H]1CN(c2cncnc2)CCN1C(=O)NCCC1CCN(Cc2ccccc2)CC1 [22-19]
3,10 to 100 nM,"O=C(NCCC1CCN(Cc2ccc(O)cc2)CC1)C1CCN(c2ccc(OC(F)(F)F)cc2)CC1 [11-1, N-(2-{1-[(4-hydroxyphenyl)methyl]piperidin-4-yl}ethyl)-1-[4-(trifluoromethoxy)phenyl]piperidine-4-carboxamide]"
4,10 to 100 nM,"O=C(NCCC1CCN(Cc2ccccc2)CC1)C1CCN(c2ccc(OC(F)(F)F)nc2)CC1 [10-34, N-[2-(1-benzylpiperidin-4-yl)ethyl]-1-[6-(trifluoromethoxy)pyridin-3-yl]piperidine-4-carboxamide]"
5,10 to 100 nM,"O=C(NCCC1CCN(Cc2ccccc2)CC1)C1CCN(c2cccc3c2OC(F)(F)O3)CC1 [10-45, N-[2-(1-benzylpiperidin-4-yl)ethyl]-1-(2,2-difluoro-2H-1,3-benzodioxol-4-yl)piperidine-4-carboxamide]"
6,100 to 1000 nM,"Cc1c(C(=O)NCCC2CCN(Cc3ccccc3)CC2)cnc2cc(-c3cccs3)nn12 [17-7, N-[2-(1-benzylpiperidin-4-yl)ethyl]-7-methyl-2-(thiophen-2-yl)pyrazolo[1,5-a]pyrimidine-6-carboxamide]"
7,10 to 100 nM,"C[C@@H]1CN(c2ccc(C#N)nn2)C[C@H](C)N1C(=O)NCCC1CCN(Cc2ccccc2)CC1 [23-3, (2R,6S)-N-[2-(1-benzylpiperidin-4-yl)ethyl]-4-(6-cyanopyridazin-3-yl)-2,6-dimethylpiperazine-1-carboxamide]"
8,100 to 1000 nM,C[C@H]1CN(c2ncc(C#N)cn2)C[C@H](C)N1C(=O)NCCC1CCN(Cc2ccccc2)CC1 [26-3]
9,100 to 1000 nM,"O=C(NCCC1CCN(Cc2ccccc2)CC1)[C@@H]1CCN(c2cccc(OC(F)(F)F)c2)C1 [10-49, (3R)-N-[2-(1-benzylpiperidin-4-yl)ethyl]-1-[3-(trifluoromethoxy)phenyl]pyrrolidine-3-carboxamide]"
10,100 to 1000 nM,"O=C(NCCC1CCN(Cc2csnn2)CC1)C1CCN(c2ccc(OC(F)(F)F)cc2)CC1 [11-11, N-{2-[1-(1,2,3-thiadiazol-4-ylmethyl)piperidin-4-yl]ethyl}-1-[4-(trifluoromethoxy)phenyl]piperidine-4-carboxamide]"
11,100 to 1000 nM,"O=C(NCCC1CCN(Cc2ccccc2)CC1)C1CCN(c2ccc(F)cn2)CC1 [10-73, N-[2-(1-benzylpiperidin-4-yl)ethyl]-1-(5-fluoropyridin-2-yl)piperidine-4-carboxamide]"
12,10 to 100 nM,"CC1(C(=O)NCCC2CCN(Cc3ccccc3)CC2)CCN(c2cccc(OC(F)(F)F)c2)CC1 [10-25, N-[2-(1-benzylpiperidin-4-yl)ethyl]-4-methyl-1-[3-(trifluoromethoxy)phenyl]piperidine-4-carboxamide]"
